Test: xn = mol fraction of the nth substance listed
Conditions: 101 kPa

SMILES | electrical conductivity (278.15 K, x1 = 0.0255) [S/m] | electrical conductivity (283.15 K, x1 = 0.0255) [S/m] | electrical conductivity (288.15 K, x1 = 0.0255) [S/m] | electrical conductivity (293.15 K, x1 = 0.0255) [S/m] | electrical conductivity (298.15 K, x1 = 0.0052) [S/m] | electrical conductivity (298.15 K, x1 = 0.0155) [S/m] | electrical conductivity (298.15 K, x1 = 0.0255) [S/m] | electrical conductivity (303.15 K, x1 = 0.0255) [S/m] | electrical conductivity (313.15 K, x1 = 0.0255) [S/m] | electrical conductivity (318.15 K, x1 = 0.0255) [S/m] | electrical conductivity (323.15 K, x1 = 0.0255) [S/m] | electrical conductivity (328.15 K, x1 = 0.0255) [S/m] | electrical conductivity (333.15 K, x1 = 0.0255) [S/m] | electrical conductivity (298.15 K, x1 = 0.0104) [S/m] | electrical conductivity (298.15 K, x1 = 0.0205) [S/m] | electrical conductivity (308.15 K, x1 = 0.0255) [S/m] | electrical conductivity (298.15 K, x1 = 0.05) [S/m] | other results
CCCCc1n(S(=O)(=O)O)cc[n+]1S(=O)(=O)O.O=C([O-])C(F)(F)F + CO | 3.18 | 3.01 | 2.89 | 2.72 | 1.41 | 1.76 | 2.65 | 2.45 | 2.08 | 1.91 | 1.73 | 1.69 | 1.57 |  |  |  |  | 
CCc1n(S(=O)(=O)O)cc[n+]1S(=O)(=O)O.O=C([O-])C(F)(F)F + CO | 3.75 |  | 3.44 |  |  | 1.93 |  | 3.03 |  | 2.51 | 2.36 | 2.19 | 1.96 | 1.64 | 2.27 | 2.95 |  | 
Cc1n(S(=O)(=O)O)cc[n+]1S(=O)(=O)O.O=C([O-])C(F)(F)F + CO |  | 4 | 3.64 |  | 1.38 | 2 | 3.29 | 3.01 | 2.86 | 2.84 | 2.73 |  | 2.32 |  | 2.41 | 2.98 | 4.44 | electrical conductivity (298.15 K, x1 = 0.08): 4.49 S/m; electrical conductivity (298.15 K, x1 = 0.1): 4.52 S/m; electrical conductivity (298.15 K, x1 = 0.12): 4.03 S/m; electrical conductivity (298.15 K, x1 = 0.15): 3.28 S/m; electrical conductivity (298.15 K, x1 = 0.18): 2.42 S/m; electrical conductivity (298.15 K, x1 = 0.2): 1.71 S/m
O=C([O-])C(F)(F)F.O=S(=O)(O)n1cc[n+](S(=O)(=O)O)c1 + CO | 5.19 | 4.9 |  | 4.26 |  | 2.85 | 4.13 | 4.05 |  | 3.52 | 3.46 | 3.37 |  | 2.23 | 3.56 |  | 5.45 | 

Reference: a compilation of properties of binary mixtures (doi:10.1016/j.molliq.2019.111099)
